Where two headings read alike, the source gives them in different places.
Tests used:
[1] = Chemical stability in aqueous solution monitored by HPLC/UPLC; assay type: physicochemical; details: aqueous solution pH 5.5-6.0, 21±1° C., HPLC, up to 3 weeks
Description: Three selected MPs (MP16, MP18, MP21) and rac-GR24 were tested for their chemical stability at 21±1° C. in aqueous solution with a pH of 5.5-6.0, as described previously (Jamil et al., 2018). Compound solution (1 mg ml^−1) was prepared with […] and 750 μl Mili-Q water. Thereafter, 25 μl Indanol (1 mg ml^−1, internal standard) was spiked in 975 μl previous prepared solution. The time course of degradation was monitored in about 50 μl aliquots by UPLC analysis using an Agilent HPLC ZORBAX Eclipse XDB-C18 column ([…], 4.6×150 mm) eluted first by 5% acetonitrile in water for 0.5 min then by a gradient from 5% to 100% acetonitrile within 18 min in water, and finally by 100% acetonitrile for 5 min. The column was operated at 40° C. at […] flow rate. Compounds eluted from the column were detected with a photodiode array detector, and the relative quantity of non-degraded amount was calculated using Indanol as internal standard. Stability was monitored at 24 h intervals up to 3 weeks.

S. hermonthica seeds [2] = assay: Parasitic seed germination bioassay, Striga; assay type: in vivo, Striga hermonthica; details: for Striga germination rate (comparison in words) / Striga germination rate: 2.5 μM; for EC50: 10^−5M to 10^−12M; for Striga germination rate: 24 h at 30° C. in dark
Description: (§1) Standard procedure was adopted to collect data for each trait, which were analyzed statistically using statistical software package R (version 3.2.2). One-way analysis of variance (ANOVA) and LSD (Least significant difference) multiple range test were applied to investigate the effect of various SL analogs (MPs 16-18 and 21-25) for various parameters. Half Maximum Effective Concentration (EC50) was calculated using IC50 toolkit (http://www.ic50.tk/index.html).
(§2) Seeds of the two root parasitic species S. hermonthica and P. aegyptiaca were tested for germination in response to MP compounds application. After pre-conditioning, as previously described (Jamil et al., 2012), Striga and Phelipanche seeds were first tested with each MP solutions at 2.5 μM concentration (55 μl per disc) and then at a concentration range from 10^−5M to 10^−12M, to calculate EC50. Sterile MilliQ water and GR24 were applied as a negative and a positive control, respectively. Treated seeds were incubated in dark for 24 h at 30° C. (for S. hermonthica) and for one week at 25° C. (for P. aegyptiaca). Germination was recorded under a binocular microscope and used to determine the germination rate (%).

P. aegyptiaca seeds = assay: Parasitic seed germination bioassay, Phelipanche; assay type: in vivo, Phelipanche aegyptiaca; details: 2.5 μM; for Phelipanche aegyptiaca germination rate: one week at 25° C. in dark
Description: as §2

[3] = tested on: SL deficient d10/CCD8 rice mutant; assay: Rice micro tillering bioassay, SL deficient d10/CCD8 mutant; assay type: in vivo; details: 2.5 μM
Description: (§3) After sterilization with 50% sodium hypochlorite, rice seeds (d10/CCD8 and d3 mutants) were germinated on moist filter paper in the dark at 30° C. The germinated seeds were then transferred to light in a growth cabinet with fluorescent white light (130-180 μM m^−2 s^−1) at 30° C. for seven days. One-week old rice seedlings were shifted to 50 ml falcon tubes (one seedling per tube) filled with half-strength modified Hoagland nutrient solution. The tubes with rice seedlings were kept in green house to grow at 30° C. and 70% humidity. After one week, the rice seedlings were treated with 2.5 μM of each SL analog. Mock and GR24 (2.5 μM) were included as control treatments. Each of the SL analogs (MPs 16-18 and 21-25) was applied twice per week up to three weeks. Number of tillers per plant, plant height and dry biomass were measured after three weeks of SL analogs application at final harvest.
as §1

[4] = tested on: rice (cv IAC-165) leaf segments; assay: Dark-induced leaf senescence of rice leaf segments; details: 3.0 μM; for ion leakage (loss of membrane integrity): continued to increase till day 6; for chlorophyll content: third and fourth day of treatment
Description: Rice seeds (cv IAC-165) were surface sterilized with 50% sodium hypochlorite solution and 0.05% Tween-20, and germinated on moist filter paper in the sealed petri plates. The petri plates with germinated seeds were transferred to white fluorescent light (130-180 μM m^−2 s^−1) with 16 h:8 h (L/D) at 28° C., to establish seedlings for one week. Seven days old uniform seedlings were selected and transferred to 50 ml tubes containing half strength modified Hoaglands nutrient solution. After one week, 2 cm leaf segments were cut from middle part of third leaves of rice plants. Each segment was put in a well (in 12-well plates) containing 4 ml of 3.0 mM MES buffer with 0.05% Tween-20. MP16 and GR24 were applied at 3.0 μM concentration. Plates were incubated at 30° C. in the dark for 7 days. After application of MP16 and GR24, plates were monitored on a daily basis and changes in leaf color, chlorophyll content and ion leakage were monitored.

ShHTL7 = ShHTL7 (Striga hermonthica, UniProt A0A0M3PNA2); assay: In vitro YLG (Yoshimulactone Green) hydrolysis competition assay with ShHTL7; assay type: biochemical; details: competition with 1.0 μM YLG, 60 min, room temperature
Sequence of ShHTL7 (A0A0M3PNA2 entry or part of it): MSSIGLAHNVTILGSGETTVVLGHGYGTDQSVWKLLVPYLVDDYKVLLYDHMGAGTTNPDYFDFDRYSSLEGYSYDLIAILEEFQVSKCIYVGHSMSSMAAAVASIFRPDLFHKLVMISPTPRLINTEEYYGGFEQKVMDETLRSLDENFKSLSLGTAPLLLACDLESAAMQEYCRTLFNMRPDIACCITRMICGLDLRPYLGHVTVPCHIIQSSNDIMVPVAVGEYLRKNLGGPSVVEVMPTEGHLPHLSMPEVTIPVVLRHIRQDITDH
Description: (§4) Purification of ShHTL7/OsD14 was carried out by adopting the procedure explained previously (Jamil et al., 2018). In vitro YLG hydrolysis assays were conducted as described before (Tsuchiya et al., 2015). About 3.0 μM of purified ShHTL7/OsD14 protein was used in a reaction buffer (1×PBS buffer, pH 7.3) with 0.1% dimethyl sulfoxide (DMSO) at a 100 μl volume on a 96-well black plate (Greiner). SL analogs (at range between 0.01 to 50 μM) were co-incubated with 1.0 μM of YLG (Tokyo Chemical Industry Co. Ltd., product number E1238) for 60 min at room temperature. In this competition assay, fluorescent intensity was measured by spectraMax i5 (Molecular Devices) at excitation at 480 nm and detection at 520 nm. The variation in fluorescence recorded over the course of 1 h of YLG incubation in protein-free buffer was subtracted from the data collected in presence of protein. IC50 values were calculated by using Quest Graph™ IC50 Calculator.

OsD14 = target: T1, OsD14 (Oryza sativa subsp. japonica, UniProt Q10QA5); assay: In vitro YLG (Yoshimulactone Green) hydrolysis competition assay with OsD14; assay type: biochemical, rice
T1 construct: made in house
T1 sequence (Q10QA5 1-318): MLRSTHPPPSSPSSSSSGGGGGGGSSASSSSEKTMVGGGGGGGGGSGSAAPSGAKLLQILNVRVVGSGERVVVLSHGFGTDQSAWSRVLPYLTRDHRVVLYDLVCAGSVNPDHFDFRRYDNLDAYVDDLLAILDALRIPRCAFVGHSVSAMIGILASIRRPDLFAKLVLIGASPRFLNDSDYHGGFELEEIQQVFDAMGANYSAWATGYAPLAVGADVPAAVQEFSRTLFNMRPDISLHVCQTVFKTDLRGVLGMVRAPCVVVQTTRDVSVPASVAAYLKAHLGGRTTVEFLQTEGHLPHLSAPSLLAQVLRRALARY
Description: as §4

[5] = tested on: SL insensitive d3 rice mutant; assay: Rice micro tillering bioassay, SL insensitive d3 mutant; assay type: in vivo; details: 2.5 μM, three weeks, no effect of treatment
Description: as §3, §1

S. hermonthica seeds [6] = details: previously described MPs, cited from earlier work

CC1=CC(O/C=C(/C(=O)OCc2ccccc2)c2ccccc2)OC1=O (centres unmarked) [MP18, (E)-Benzyl 3-((4-methyl-5-oxo-2,5-dihydrofuran-2-yl)oxy)-2-phenylacrylate]
stability (relative amount of non-degraded compound) compared to GR24 [1]: in the range of that of GR24
Striga germination rate (comparison in words) (S. hermonthica seeds [2]): lower germination rate
EC50 (S. hermonthica seeds [2]; Striga hermonthica): 6.44 nM
EC50 compared with MPs 19 and 20 (S. hermonthica seeds [2]; Striga seed germination): lower EC50 than MPs 19 and 20
Phelipanche aegyptiaca germination rate (P. aegyptiaca seeds): around 51%

CC1=CC(O/C=C(\C(=O)N(C)C)c2ccccc2)OC1=O (centres unmarked) [MP16, (Z)—N,N-Dimethyl-3-((4-methyl-5-oxo-2,5-dihydrofuran-2-yl)oxy)-2-phenylacrylamide]
stability (relative amount of non-degraded compound) compared to GR24 [1]: in the range of that of GR24
tillering inhibition (in words) ([3]; d10 mutant, compared to mock treatment): more effective compared with MPs 19 and 20
effect on growth, biomass and plant height ([3]; rice seedlings, compared with GR24): stunted growth and triggered senescence in rice seedlings, leading to reduced biomass and plant height
ion leakage (loss of membrane integrity) ([4]; dark): began to increase on the third day of treatment
chlorophyll content [4]: significant reduction
Striga germination rate (comparison in words) (S. hermonthica seeds [2]): higher than MPs 19 and 20
Striga germination rate (S. hermonthica seeds [2]): 62%
EC50 (S. hermonthica seeds [2]; Striga hermonthica): 0.105 nM
EC50 compared with MPs 19 and 20 (S. hermonthica seeds [2]; Striga seed germination): lower EC50 than MPs 19 and 20
EC50 relative to that of GR24 (S. hermonthica seeds [2]; Striga seed germination): less than two times higher
Phelipanche aegyptiaca germination rate (P. aegyptiaca seeds): around 51%
IC50 (ShHTL7): 4370 ± 210 nM
IC50 (OsD14): 3070 ± 540 nM

CC1=CC(O/C=C(/C(=O)Oc2cccc3ccccc23)c2ccccc2)OC1=O (centres unmarked) [MP25, (E)-naphthalen-1-yl 3-((4-methyl-5-oxo-2,5-dihydrofuran-2-yl)oxy)-2-phenylacrylate]
Phelipanche seed germination (comparison in words) (P. aegyptiaca seeds): lower activity

CC1=CC(O/C=C(/C(=O)Oc2ccc(C)cc2)c2ccccc2)OC1=O (centres unmarked) [MP24, (E)-p-Tolyl 3-((4-methyl-5-oxo-2,5-dihydrofuran-2-yl)oxy)-2-phenylacrylate]
Phelipanche seed germination (comparison in words) (P. aegyptiaca seeds): lower activity

CC1=CC(O/C=C(/C(=O)Oc2ccccc2)c2ccccc2)OC1=O (centres unmarked) [MP17, (E)-Phenyl 3-((4-methyl-5-oxo-2,5-dihydrofuran-2-yl)oxy)-2-phenylacrylate]
Striga germination rate (comparison in words) (S. hermonthica seeds [2]): lower germination rate
EC50 (S. hermonthica seeds [2]; Striga hermonthica): 4350 nM

CC1=CC(O/C=C(/C(=O)Oc2cccc(Cl)c2)c2ccccc2)OC1=O (centres unmarked) [MP22, (E)-3-Chlorophenyl 3-((4-methyl-5-oxo-2,5-dihydrofuran-2-yl)oxy)-2-phenylacrylate]
Phelipanche seed germination (comparison in words) (P. aegyptiaca seeds): lower activity

CC1=C[C@H](O/C=C2/C(=O)O[C@@H]3c4ccccc4C[C@H]23)OC1=O [GR24, reference compound]
number of tillers per plant [5]: 4
loss of the green color of leaf segments (time) ([4]; dark, 30° C., one day earlier than mock control): on the third day after application
ion leakage (loss of membrane integrity) ([4]; dark): began to increase on the third day of treatment
chlorophyll content [4]: significant reduction
Striga germination rate (S. hermonthica seeds [2]): 72%
EC50 (S. hermonthica seeds [2]): 0.0723 nM
Phelipanche aegyptiaca germination rate (P. aegyptiaca seeds): 43%
IC50 (ShHTL7): 980 ± 260 nM
IC50 (OsD14; competition with 1.0 μM YLG, 60 min, room temperature, read-out: IC50, OsD14-mediated YLG hydrolysis): 1040 ± 90 nM

CC1=CC(O/C=C(/C(=O)OCc2ccccc2)c2ccccc2)OC1=O (centres unmarked) [MP21, (E)-Benzyl 3-((4-methyl-5-oxo-2,5-dihydrofuran-2-yl)oxy)-2-phenylacrylate]
stability (relative amount of non-degraded compound) compared to GR24 [1]: higher degradation rate, compared to GR24
EC50 compared with MPs 19 and 20 (S. hermonthica seeds [2]; Striga seed germination): lower EC50 than MPs 19 and 20
Phelipanche seed germination (comparison in words) (P. aegyptiaca seeds): lower activity

COC(=O)/C(=C/OC1C=C(C)C(=O)O1)c1ccc([N+](=O)[O-])cc1 (centres unmarked) [MP1]
EC50 relative to that of GR24 (Jamil et al., 2018) (S. hermonthica seeds [6]): about 17 times
EC50 (S. hermonthica seeds [6]; read-out: EC50 (Striga seed germination, Jamil et al., 2018)): 1.5 nM

CC1=CC(O/C=C(/C(=O)OCC(C)C)c2ccccc2)OC1=O (centres unmarked) [MP19, reference compound]
Phelipanche seed germination (comparison in words) (P. aegyptiaca seeds): comparable germination rate as MPs 16 and 18
